Holding throughout (format): cell-based
For assay [1], the system named is p100 gene classifier (noncanonical NF-κB pathway). The assay can be described thus: nCounter gene expression of the p100 classifier in DLBCL cell lines after drug treatment. The procedure: (§1) FIG. 5A illustrates that rituximab increases the apoptotic effect of doxorubicin when it is associated with suppression of p105 and induction of p100 classifier gene expression. Boxplot of p100 and p105 gene list illustrating the changes in gene expression in cells treated with doxorubicin ([…]) or rituximab ([…]). Cells were treated for 24 hours and the percent of live cells was measured using an ImageXpress 5000A Automated Acquisition and Analysis System (Molecular Devices), quantitating for Yo-pro-1 or PI-negative cells.
(§2) Given the capacity of the p105 classifier to predict a better response to RCHOP, the extent to which both classifiers were targeted by rituximab was investigated. In this investigation, the pathway dysregulation in a series of DLBCL cell lines and their changes in gene expression produced by DNA damaging agent (doxorubicin) and rituximab was measured. Based on their known baseline pattern of NF-κB activation, cell lines with enhanced (OCI-LY3, OCI-LY10) and suppressed (OCI-LY19 and OCI-LY2) NF-κB activation were selected for further testing (FIG. 5A).
(§3) nCounter Analysis System technology was developed by NanoString Technologies. In brief, nCounter™ assay was performed using 100 ng of total RNA or 2 μL of tissue lysate per replicate. The nCounter CodeSet for these studies contained probe pairs for 47 test and 3 control genes. All 47 genes and controls (n=3) were assayed simultaneously in multiplexed reactions. […] Subsequently, supervised complete linkage agglomerative hierarchical clustering analysis was performed.

Assay [2] has as its system p105 gene classifier (canonical NF-κB pathway). The assay can be described thus: nCounter gene expression of the p105 classifier in DLBCL cell lines after drug treatment. The method, then:
as §1, §2, §3

Assay [3] concerns DLBCL cell lines OCI-LY3, OCI-LY10, OCI-LY19 and OCI-LY2. The assay can be described thus: Apoptosis studies (Yo-pro-1 / PI negative live cells, ImageXpress). The note with it: rituximab alone, titrating doses, 24 hours; all four cell lines. The method, then: To assess the consequence of rituximab's functional effects, the degree of apoptosis produced after treating all four cell lines with titrating doses of doxorubicin and rituximab was measured.
For apoptosis studies, 10^4 cells were treated with titrating doses of doxorubicin (titrating doses: […], Sigma) or rituximab (titrating doses: 1.5, 2.5, 5, 10 and 20 mg/mL, Biogen Idec Inc). Twenty four hours later cells were stained with Yo-pro-1 iodide and propidium Iodide (PI, both from Invitrogen). Live cells were measured using an ImageXpress 5000A Automated Acquisition and Analysis System (Molecular Devices), quantitating for Yo-pro-1 iodide and PI negative cells.

Setting [4] is: doxorubicin alone, OCI-LY3, OCI-LY10 cells.
[5] abbreviates: rituximab with doxorubicin, NF-κB activated cell lines (OCI-LY3, OCI-LY10).

For the molecule `COc1cccc2c1C(=O)c1c(O)c3c(c(O)c1C2=O)C[C@@](O)(C(=O)CO)C[C@@H]3O[C@H]1C[C@H](N)[C@H](O)[C@H](C)O1` [doxorubicin], the “gene expression of p100 target genes” value in assay [1] (setting [4]) is recorded as “moderately induced”. The “gene expression of p105 target genes” value in assay [2] (setting [4]) is recorded as “moderately induced”.

On to rituximab, for which, in assay [1] (OCI-LY2 and OCI-LY19 cells), the “change in expression of p100 classifier” value is “minimally changed”. Further, the “effect on doxorubicin's induction of p100 gene classifier” value in assay [1] (setting [5]) is “enhanced the induction”. The degree of apoptosis entry in assay [3] was “did not induce significant apoptosis beyond background levels”. In assay [2] (OCI-LY2 and OCI-LY19 cells), the “change in expression of p105 classifier” value is “minimally changed”. Further, the “effect on doxorubicin's induction of p105 gene classifier” value in assay [2] (setting [5]) is on record as “suppressed doxorubicin's induction”.

For the origin of these results see patent US10052381B2, “Classifiers of NF-κB pathway activation, devices, and methods of use thereof” (Emory University, priority 2012, dated 2018).
